# Assay results taken from patent publication US12697331B2, “Methods of use of T-type calcium channel modulators” (PRAXIS PRECISION MEDICINES, INC., priority 2020, dated 2026).
# Where a name gives a salt, the structure may show the parent alone.
# What was measured:
# [1] = Food effect: high-fat, high-calorie meal, single 20 mg dose; format: in vivo, human; details: single 20 mg oral dose
# Procedure: The effect of a high-fat, high-calorie meal on the pharmacokinetics of a compound of formula (II) was evaluated in an open-label, sequential fashion following a single 20 mg dose of formulation 5 in participants who had previously received a 20 mg dose of formulation 5 under fasted conditions.
# [2] = system: NREM sigma, EO and EC gamma absolute power; assay: Population PKPD modelling of EEG power versus model-predicted plasma concentration (NONMEM); format: in vivo, human
# Procedure: The pharmacokinetic/pharmacodynamic (PKPD) effects of administration a compound of formula (II) on EEG were also evaluated. The recording of the NREM sigma absolute power was reported as a single summary value of a single night of sleep following each dose on pre-specified days (baseline and Days 4, 8 and 12 for Example 11, Part A and Days 10, 17, 24, and 31 for Part B, as set forth in Tables 22 and 23, above. Each NREM sigma absolute power value was paired with a model predicted average plasma concentration (Cave) that corresponded to the 24-hour EEG recording period on the respective study day. For example, if the period of EEG recording for an individual was from 6 am on Day 4 to 6 am on Day 5, then the corresponding Cave was calculated as the average of the individual's model-predicted concentrations (sampled every 30 minutes) from that same time period. The resulting PKPD data were analyzed in a mixed-effects modelling framework using NONlinear Mixed Effects Modeling (NONMEM) software. The change from baseline NREM sigma absolute power was specified as the outcome and the primary explanatory variable was the Cave of a compound of formula (II).
# The eyes open (EO) and eyes closed (EC) gamma absolute power for each individual was also estimated at specific time points across the study days.
# The population PK model was used to generate Cave for NREM sigma absolute power and concentrations for EO and EC gamma absolute power. For NREM sigma absolute power, the Cave was computed for the final day of each dose level over the EEG collection interval. For EO and EC gamma absolute power, concentrations at 4 hours post-dose and 23.75 hours post-dose were generated on the final day of each dose level. The final population PKPD models for NREM sigma absolute power and EO and EC gamma absolute power were then used to generate corresponding EEG responses.
# hCav3.2 = biological target: T1, hCav3.2 (Homo sapiens, UniProt O95180); assay: PatchXpress patch clamp, voltage dependent block (half-inactivated state, V0.5); format: cell-based; details: for Inhibition of hCav3.2 peak current, voltage dependent block (percent inhibition), mean: half-inactivated state (V0.5)
# T1 construct: expressed in transfected cells; host or cells: HEK-293 (cultured under G418 selection)
# Procedure: (§1) The voltage dependence of calcium channel isoforms was determined by comparing the activity of resting (Tonic Block) and half-inactivated (Voltage Dependent Block) voltages across various concentrations of Formula (II). First, HEK-293 cells containing hCav3.1, hCav3.2, or hCav3.3 calcium channel isoforms were prepared by seeding at 2×10^6 cells per flask in culture for 2 days; the cells were then harvested at about 6×10^6 cells. Harvested cells were washed once in DPBS for approximately 30 minutes, and 1 mL of 1× (0.05%) Trypsin-EDTA was added, swirled, and allowed to sit on the cells for approximately 4 minutes. 10 mL of warmed DMEM high glucose media supplemented with 10% fetal bovine serum, 2 mM sodium pyruvate, 10 mM HEPES, and 400 μg/mL G418 was added, and the cells were triturated until a single cell suspension was […]. Cells were placed in a 250 mL centrifuge tube with 30 mL warmed media and gently rocked at 28° C. for approximately 1 hour. Cell aliquots of 5 mLs (1×10^6 cells) were then centrifuged at 100× for 2 minutes, and supernatant was removed. Next, 100 μl of external recording solution was added to the remaining cell pellet and triturated 20 times to achieve a single cell suspension.
# (§2) Immediately prior to assay, Formula (II) was diluted with DMSO to 300× the designated final concentration. All studies were performed using the Molecular Devices PatchXpress automated patch clamp platform at room temperature.
# (§3) Pharmacology was measured during Epoch 1. Percent inhibition was calculated as: 100*((([Step 2+Step 5]/2)−Step 3)/(Step 2+Step 5/2)), wherein Step 2 is the peak current measured at baseline, Step 5 is the current measured during the wash period, and Step 3 is the peak current measured during application of the compound. The average of the final 3 consecutive currents in each experimental procedure was used for all calculations. The concentration response curve was fit with a Hill equation to derive IC50, slope, minimum response, and maximum response fitting parameters.
# (§4) To calculate the hCav3.1, hCav3.2, and hCav3.3 peak current from a half-inactivated state (voltage dependent block), currents were first evoked by depolarizing pulses to −25 mV (10 ms) from a non-inactivating holding potential (−120 mV) at a frequency of 0.1 Hz. After current amplitude became stable, the mid-point average of steady state inactivation was determined for each cell using a series of 9,900 ms conditioning steps to increasingly depolarize voltages (ranging from Vhold (−120 mV) to −40 mV) preceding a test pulse to −25 mV (10 ms) to establish the magnitude of inactivation. The holding command potential was then set to the voltage that produced approximately 50% inactivation (V0.5) using PatchXpress scripts. From this V0.5 potential, a voltage step to −25 mV (10 ms) was used to evoque peak current. The voltage was stepped to −120 mv (50 ms) to evoque tail currents and monitor cell integrity.
# (§5) The effect of the compound on peak current amplitude was monitored using the voltage protocol described above and washed out after reaching steady state as determined by PatchXpress stability scripts. Washout was performed at the original holding potential of −120 mV to facilitate reversal of state-dependent interactions. Washout current for the calculation of inhibition was determined by resetting the holding potential to the previously determined half-inactivation potential (V0.5) and measuring peak current from this holding potential. Pharmacology was measured during Epoch 1, and percent inhibition was calculated as discussed above for tonic block.
# hCav3.1 = biological target: T2, hCav3.1 (Homo sapiens, UniProt O43497); assay: as above; format: cell-based; details: for Inhibition of hCav3.1 peak current, voltage dependent block (percent inhibition), mean: half-inactivated state (V0.5)
# T2 construct: expressed in transfected cells; host or cells: HEK-293 (cultured under G418 selection)
# Procedure: as §1, §2, §3, §4, §5
# hCav3.3 = biological target: T3, hCav3.3 (Homo sapiens, UniProt Q9P0X4); assay: as above; format: cell-based; details: for Inhibition of hCav 3.3 peak current, voltage dependent block (percent inhibition), mean: half-inactivated state (V0.5)
# T3 construct: expressed in transfected cells; host or cells: HEK-293 (cultured under G418 selection)
# Procedure: as §1, §2, §3, §4, §5
# T2 sequence (O43497 whole entry): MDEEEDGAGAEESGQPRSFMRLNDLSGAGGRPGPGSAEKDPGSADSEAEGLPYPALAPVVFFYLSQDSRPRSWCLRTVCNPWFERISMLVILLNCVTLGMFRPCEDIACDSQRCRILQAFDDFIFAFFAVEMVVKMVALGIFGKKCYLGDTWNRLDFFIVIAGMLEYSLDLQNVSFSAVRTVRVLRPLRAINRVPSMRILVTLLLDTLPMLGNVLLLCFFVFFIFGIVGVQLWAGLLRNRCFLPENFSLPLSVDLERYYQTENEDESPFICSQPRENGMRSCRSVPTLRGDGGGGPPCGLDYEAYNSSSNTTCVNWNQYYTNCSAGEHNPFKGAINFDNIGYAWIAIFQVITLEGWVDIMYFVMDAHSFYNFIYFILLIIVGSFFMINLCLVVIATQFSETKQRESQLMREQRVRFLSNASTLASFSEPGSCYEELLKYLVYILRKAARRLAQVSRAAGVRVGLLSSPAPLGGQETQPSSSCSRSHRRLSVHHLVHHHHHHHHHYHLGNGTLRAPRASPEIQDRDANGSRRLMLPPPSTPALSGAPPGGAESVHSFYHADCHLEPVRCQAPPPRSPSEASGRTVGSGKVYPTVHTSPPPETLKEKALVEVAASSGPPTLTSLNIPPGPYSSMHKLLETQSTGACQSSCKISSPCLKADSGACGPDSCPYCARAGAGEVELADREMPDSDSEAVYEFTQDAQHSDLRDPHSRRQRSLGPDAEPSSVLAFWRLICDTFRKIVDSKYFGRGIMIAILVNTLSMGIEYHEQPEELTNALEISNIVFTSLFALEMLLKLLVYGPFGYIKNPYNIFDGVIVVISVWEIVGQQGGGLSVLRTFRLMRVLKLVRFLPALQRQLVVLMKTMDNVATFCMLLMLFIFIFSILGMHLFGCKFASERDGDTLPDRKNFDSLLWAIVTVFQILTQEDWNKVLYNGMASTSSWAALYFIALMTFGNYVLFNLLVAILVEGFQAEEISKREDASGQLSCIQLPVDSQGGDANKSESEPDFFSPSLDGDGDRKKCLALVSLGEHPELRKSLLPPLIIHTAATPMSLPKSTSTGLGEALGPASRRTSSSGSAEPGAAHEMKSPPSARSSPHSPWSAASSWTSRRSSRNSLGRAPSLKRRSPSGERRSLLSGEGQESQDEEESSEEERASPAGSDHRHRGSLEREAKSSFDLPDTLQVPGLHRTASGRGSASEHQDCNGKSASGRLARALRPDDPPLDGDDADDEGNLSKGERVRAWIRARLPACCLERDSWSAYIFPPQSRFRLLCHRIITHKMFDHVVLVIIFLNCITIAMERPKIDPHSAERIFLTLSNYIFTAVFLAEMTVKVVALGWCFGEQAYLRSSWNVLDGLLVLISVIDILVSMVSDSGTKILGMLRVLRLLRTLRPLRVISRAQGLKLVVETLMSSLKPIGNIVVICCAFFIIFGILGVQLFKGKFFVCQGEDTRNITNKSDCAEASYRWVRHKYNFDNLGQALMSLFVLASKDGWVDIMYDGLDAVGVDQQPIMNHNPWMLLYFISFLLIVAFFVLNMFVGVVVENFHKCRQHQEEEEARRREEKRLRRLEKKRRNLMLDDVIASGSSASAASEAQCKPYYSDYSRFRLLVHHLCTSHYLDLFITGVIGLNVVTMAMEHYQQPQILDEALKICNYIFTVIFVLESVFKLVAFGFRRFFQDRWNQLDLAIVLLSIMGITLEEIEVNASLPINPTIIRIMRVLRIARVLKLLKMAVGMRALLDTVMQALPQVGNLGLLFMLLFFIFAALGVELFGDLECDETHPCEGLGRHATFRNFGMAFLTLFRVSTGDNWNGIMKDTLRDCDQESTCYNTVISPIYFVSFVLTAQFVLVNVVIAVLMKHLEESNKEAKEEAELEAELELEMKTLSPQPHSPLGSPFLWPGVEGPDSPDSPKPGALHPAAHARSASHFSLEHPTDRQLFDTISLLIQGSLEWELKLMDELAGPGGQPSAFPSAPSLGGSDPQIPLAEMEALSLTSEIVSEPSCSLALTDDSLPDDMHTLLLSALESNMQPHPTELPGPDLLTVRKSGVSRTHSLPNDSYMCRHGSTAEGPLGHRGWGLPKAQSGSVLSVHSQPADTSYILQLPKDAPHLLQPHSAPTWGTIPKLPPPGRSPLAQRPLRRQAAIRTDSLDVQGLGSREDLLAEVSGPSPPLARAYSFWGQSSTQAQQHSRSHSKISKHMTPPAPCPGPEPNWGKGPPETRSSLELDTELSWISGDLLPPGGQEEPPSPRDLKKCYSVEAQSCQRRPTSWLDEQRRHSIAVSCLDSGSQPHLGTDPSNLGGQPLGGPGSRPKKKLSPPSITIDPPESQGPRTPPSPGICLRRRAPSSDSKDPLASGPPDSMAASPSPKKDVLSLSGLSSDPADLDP
# T1 sequence (O95180 whole entry): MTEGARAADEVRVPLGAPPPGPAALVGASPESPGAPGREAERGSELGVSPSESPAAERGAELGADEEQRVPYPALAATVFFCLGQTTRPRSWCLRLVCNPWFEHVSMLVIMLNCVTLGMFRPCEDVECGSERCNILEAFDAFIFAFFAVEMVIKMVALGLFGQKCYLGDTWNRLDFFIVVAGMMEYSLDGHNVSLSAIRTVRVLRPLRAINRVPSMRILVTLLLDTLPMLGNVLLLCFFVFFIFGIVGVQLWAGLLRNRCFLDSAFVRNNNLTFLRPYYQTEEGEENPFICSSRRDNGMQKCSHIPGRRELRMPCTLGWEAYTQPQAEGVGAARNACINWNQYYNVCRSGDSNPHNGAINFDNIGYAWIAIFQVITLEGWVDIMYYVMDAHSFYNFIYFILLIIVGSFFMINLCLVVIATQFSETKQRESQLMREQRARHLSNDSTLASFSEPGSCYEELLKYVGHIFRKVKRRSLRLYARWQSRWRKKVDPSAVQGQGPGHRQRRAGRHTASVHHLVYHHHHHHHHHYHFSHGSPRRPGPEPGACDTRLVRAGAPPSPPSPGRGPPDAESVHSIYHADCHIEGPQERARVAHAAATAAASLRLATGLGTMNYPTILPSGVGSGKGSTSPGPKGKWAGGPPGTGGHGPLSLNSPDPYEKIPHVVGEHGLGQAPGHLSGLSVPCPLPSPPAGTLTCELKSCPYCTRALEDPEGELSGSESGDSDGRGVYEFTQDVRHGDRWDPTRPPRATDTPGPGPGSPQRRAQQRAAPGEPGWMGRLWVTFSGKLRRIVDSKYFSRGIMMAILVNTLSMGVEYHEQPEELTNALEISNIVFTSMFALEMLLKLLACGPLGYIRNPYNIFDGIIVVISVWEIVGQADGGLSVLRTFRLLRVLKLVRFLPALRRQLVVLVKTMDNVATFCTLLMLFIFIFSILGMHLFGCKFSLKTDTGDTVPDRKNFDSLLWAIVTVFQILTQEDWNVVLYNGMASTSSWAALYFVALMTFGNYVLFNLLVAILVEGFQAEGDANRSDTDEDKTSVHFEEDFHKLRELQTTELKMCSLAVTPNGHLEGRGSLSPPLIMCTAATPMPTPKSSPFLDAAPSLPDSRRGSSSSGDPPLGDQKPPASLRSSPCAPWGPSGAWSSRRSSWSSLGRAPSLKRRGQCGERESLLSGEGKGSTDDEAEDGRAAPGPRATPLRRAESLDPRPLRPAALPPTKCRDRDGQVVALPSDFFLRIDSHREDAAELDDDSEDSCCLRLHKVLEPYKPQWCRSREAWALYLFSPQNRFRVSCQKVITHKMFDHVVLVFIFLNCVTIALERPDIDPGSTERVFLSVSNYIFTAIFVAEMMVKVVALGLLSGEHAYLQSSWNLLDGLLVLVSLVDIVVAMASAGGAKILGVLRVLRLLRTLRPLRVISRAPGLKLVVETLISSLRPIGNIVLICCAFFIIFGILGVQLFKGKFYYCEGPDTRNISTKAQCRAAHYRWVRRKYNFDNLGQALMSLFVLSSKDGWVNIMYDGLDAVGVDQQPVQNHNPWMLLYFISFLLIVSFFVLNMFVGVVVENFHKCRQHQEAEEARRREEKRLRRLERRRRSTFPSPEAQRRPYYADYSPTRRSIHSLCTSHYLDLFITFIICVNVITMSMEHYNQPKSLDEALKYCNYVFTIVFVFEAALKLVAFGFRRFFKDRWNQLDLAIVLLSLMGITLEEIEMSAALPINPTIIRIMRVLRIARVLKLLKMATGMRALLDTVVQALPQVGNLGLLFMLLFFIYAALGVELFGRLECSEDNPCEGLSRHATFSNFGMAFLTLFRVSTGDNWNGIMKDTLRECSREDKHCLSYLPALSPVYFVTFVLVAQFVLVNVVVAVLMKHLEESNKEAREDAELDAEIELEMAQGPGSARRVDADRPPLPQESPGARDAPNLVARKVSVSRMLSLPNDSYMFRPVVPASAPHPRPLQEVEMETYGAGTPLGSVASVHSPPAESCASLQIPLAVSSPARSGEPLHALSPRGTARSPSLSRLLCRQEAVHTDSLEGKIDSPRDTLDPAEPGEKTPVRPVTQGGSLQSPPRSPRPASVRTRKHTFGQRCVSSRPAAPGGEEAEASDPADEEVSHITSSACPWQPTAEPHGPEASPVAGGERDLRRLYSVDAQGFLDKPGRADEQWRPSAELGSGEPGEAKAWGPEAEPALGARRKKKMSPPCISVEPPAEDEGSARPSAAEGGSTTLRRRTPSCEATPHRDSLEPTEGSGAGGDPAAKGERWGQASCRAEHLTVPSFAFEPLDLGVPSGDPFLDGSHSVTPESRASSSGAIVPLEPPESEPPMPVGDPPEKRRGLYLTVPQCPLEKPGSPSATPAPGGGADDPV
smiles,measurement,setting,value
"CC(C)(C)NC(=O)CN1CCC(CNC(=O)c2cc(F)cc(Cl)c2)CC1 [compound of formula (II), N-((1-(2-(tert-butylamino)-2-oxoethyl)piperidin-4-yl)methyl)-3-chloro-5-fluorobenzamide hydrochloride]",AUClast Ratio (fed/fasted),[1],1.14
same,AUC∞ Ratio (fed/fasted),[1],1.15
same,Cmax Ratio (fed/fasted),[1],1.49
same,Cave at which maximum reduction in NREM sigma absolute power appeared to occur,"[2]; model predicted average plasma concentration, titrated",greater than 180 ng/mL
same,C(t) at which maximum reduction in EC gamma absolute power appeared to occur,[2]; titrated up to 120 mg,> 300 ng/mL
same,C(t) at which maximum reduction in EO gamma absolute power appeared to occur,[2]; titrated up to 120 mg,> 300 ng/mL
same,"Inhibition of hCav3.2 peak current, voltage dependent block (percent inhibition), mean",hCav3.2; 0.03 μm,16.6 (11)
same,"Inhibition of hCav3.2 peak current, voltage dependent block (percent inhibition), mean",hCav3.2; 0.09 μm,31.2 (7)
same,"Inhibition of hCav3.2 peak current, voltage dependent block (percent inhibition), mean",hCav3.2; 0.27 μm,48.4 (9)
same,"Inhibition of hCav3.2 peak current, voltage dependent block (percent inhibition), mean",hCav3.2; 0.91 μm,78.8 (12)
same,"Inhibition of hCav3.2 peak current, voltage dependent block (percent inhibition), mean",hCav3.2; 2.74 μm,91.6 (13)
same,tonic block/voltage dependent block (TB/VDB) ratio,hCav3.2; hCav3.2,2.0
same,"Inhibition of hCav3.1 peak current, voltage dependent block (percent inhibition), mean",hCav3.1; 0.03 μm,13.9 (12)
same,"Inhibition of hCav3.1 peak current, voltage dependent block (percent inhibition), mean",hCav3.1; 0.09 μm,29.7 (14)
same,"Inhibition of hCav3.1 peak current, voltage dependent block (percent inhibition), mean",hCav3.1; 0.27 μm,55.2 15)
same,"Inhibition of hCav3.1 peak current, voltage dependent block (percent inhibition), mean",hCav3.1; 0.91 μm,73.8 (9)
same,"Inhibition of hCav3.1 peak current, voltage dependent block (percent inhibition), mean",hCav3.1; 2.74 μm,84.6 (9)
same,"Inhibition of hCav3.1 peak current, voltage dependent block (percent inhibition), mean",hCav3.1; 9.13 μm,86.0 (7)
same,tonic block/voltage dependent block (TB/VDB) ratio,hCav3.1; hCav3.1,3.8
same,"Inhibition of hCav 3.3 peak current, voltage dependent block (percent inhibition), mean",hCav3.3; 0.03 μm,12.9 (8)
same,"Inhibition of hCav 3.3 peak current, voltage dependent block (percent inhibition), mean",hCav3.3; 0.09 μm,26.9 (17)
same,"Inhibition of hCav 3.3 peak current, voltage dependent block (percent inhibition), mean",hCav3.3; 0.27 μm,58.7 (19)
same,"Inhibition of hCav 3.3 peak current, voltage dependent block (percent inhibition), mean",hCav3.3; 0.91 μm,76.9 (20)
same,"Inhibition of hCav 3.3 peak current, voltage dependent block (percent inhibition), mean",hCav3.3; 2.74 μm,89.4 (20)
same,"Inhibition of hCav 3.3 peak current, voltage dependent block (percent inhibition), mean",hCav3.3; 9.13 μm,92.9 (4)
same,tonic block/voltage dependent block (TB/VDB) ratio,hCav3.3; hCav3.3,4.0
